The values below are quoted from earlier work in patent US11396520B2, “Synthesis of the organoarsenical antibiotic arsinothricin and derivatives thereof” (THE FLORIDA INTERNATIONAL UNIVERSITY BOARD OF TRUSTEES, priority 2020, dated 2022).

The structures appear in SMILES notation.

One series deals with glutamine synthetase. Particulars: stated in words, no test described.
Series [1] concerns carbapenem-resistant Enterobacter cloacae (CRE). Particulars: WHO ESKAPE pathogen CRE; stated in words, no test described.
The subject of the next series is Mycobacterium bovis BCG. Particulars: M. bovis BCG; stated in words, no test described.
In series [2] the test system is Gram-positive and Gram-negative bacteria. Particulars: stated in words, no test described.

As for `NC(CC[AsH](=O)CO)C(=O)O` (stereo not shown) [AST, 2-amino-4-(hydroxymethylarsinoyl)-butanoic acid], in the series with glutamine synthetase, the “inhibition of glutamine synthetase” value was “inhibits glutamine synthetase”. The antibiotic activity result in series [1] was “effective against”; in the series on Mycobacterium bovis BCG, “effective against”; in series [2] it was “effective against both Gram-positive and Gram-negative bacteria”.
